Laboratory results from patent US20150018384A1, “TREATMENT FOR HIGH CHOLESTEROL” (FibroGen, Inc., priority 2012, published 2015).
Entries after “also recorded” stand apart in the source; their conditions may differ. Marks after values point to notes of the source that are not given here.

Experiments:
[1] = target: PHD1 (Homo sapiens, UniProt Q96KS0); experiment: HIF prolyl hydroxylase enzyme assay, PHD1; assay type: biochemical
From the text: Suitable assay methods are well known in the art.

[2] = tested on: healthy subjects; experiment: Circulating total cholesterol and LDL-C in healthy subjects dosed twice per week; assay type: in vivo, human; conditions: 1.88 mg/Kg orally twice per week, average (SD), n=6
Experimental: Subjects were fasted overnight prior on subsequent dosing days. Overnight fasting was not required on non-dosing days. The samples had been stored frozen at −70° C. for up to 6 years, and had undergone up to two thaw/freeze cycles prior to testing. Results are presented separately for samples collected during fasting: Day 1 (0, 1, 2 hrs post-dose), Day 2 (24 hrs), Day 3 (72 hrs), Day 7 (168 hrs), Day 10 (240 hrs) and Day 17 (408 hours).
Samples were analyzed using validated assays on a Roche Modular system. Total cholesterol was measured using the CHOD-PAP reagent from Roche, Cat. No. 11875540216. HDL cholesterol was measured using reagents from Polymedco, Cat. No. 9400 (data not shown). LDL cholesterol was measured using the LDL-C plus 2nd generation reagents from Roche, Cat. No. 04711220190. Triglycerides were measured using GPO-PAP reagent from Roche, Cat. No. 11730711216 (data not shown).

[3] = tested on: Sprague-Dawley rats; experiment: Single oral dose lipid panel in rats; assay type: in vivo, rat; conditions: fasted rats, single oral dose 60 mg/kg, after 24 hours
Experimental: Blood samples were collected at baseline (pre-dose) and approximately 24 hours following dosing to determine levels of cholesterol, HDL, LDL and the LDL/HDL ratio.

[4] = tested on: Cholesterol Biosynthesis Genes in the Mouse Liver; experiment: Microarray expression of cholesterol biosynthesis genes in mouse liver; assay type: in vivo; conditions: 90 mg/kg oral
Outline: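 Mouse livers taken 4 h or 8 h post-treatment; RNA from paired animals pooled and hybridized to mouse 430A 2.0 arrays, GC-RMA processed, outlier arrays removed by PCA. Values are fold-change versus timepoint-matched vehicle controls from the same study; below 1.0 means reduced liver RNA.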

[5] = tested on: subjects with end stage renal disease (ESRD); experiment: ESRD subjects switched from epoetin alfa to Compound A or continued on epoetin alfa; assay type: in vivo, human; conditions: six weeks
Experimental: Mean total cholesterol change for the Compound A-treated subjects (all cohorts) was a decrease of 15 mg/dL compared to an increase of 18 mg/dL for the epoetin alfa treated subjects.

[6] = tested on: ApoE deficient mice; experiment: Cholesterol reduction and erythrogenesis in ApoE deficient mice, 4 weeks; assay type: in vivo, mouse; conditions: orally 2, 20, 60 or 100 mg/kg three times a week for 4 weeks, n=8/group
Experimental: Ten-week-old male apoE knockout mice (Jackson Laboratories, Bar Harbor, Me.) were fed a normal chow diet (0.02% cholesterol, 13.5% fat by weight; LabDiet). […] After 2 weeks of acclimatization, whole blood was collected for baseline measurement before administration of test reagents. […] The animals were sacrificed at end of study.
Total cholesterol and hemoglobin were measured weekly.

[7] = tested on: subjects with end stage renal disease (ESRD); experiment: ESRD subjects switched from epoetin alfa to Compound A or continued on epoetin alfa; assay type: in vivo, human
[8] = baseline, Compound A 3 cohorts n=74, Epoetin alfa n=22

Chain of PHD1 (Q96KS0 whole entry): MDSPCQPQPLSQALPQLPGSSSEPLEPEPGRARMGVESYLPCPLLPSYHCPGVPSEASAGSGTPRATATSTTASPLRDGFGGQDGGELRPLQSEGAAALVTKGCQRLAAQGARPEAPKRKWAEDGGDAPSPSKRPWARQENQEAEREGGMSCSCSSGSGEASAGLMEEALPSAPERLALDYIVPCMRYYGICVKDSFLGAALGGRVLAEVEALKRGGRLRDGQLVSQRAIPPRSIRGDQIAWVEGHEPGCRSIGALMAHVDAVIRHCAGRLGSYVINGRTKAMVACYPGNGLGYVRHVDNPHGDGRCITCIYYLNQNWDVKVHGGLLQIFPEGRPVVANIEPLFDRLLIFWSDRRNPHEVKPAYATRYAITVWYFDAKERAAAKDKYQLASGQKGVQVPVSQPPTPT

For `Cc1nc(C(=O)NCC(=O)O)c(O)c2ccc(Oc3ccccc3)cc12` [Compound A, [(4-Hydroxy-1-methyl-7-phenoxy-isoquinoline-3-carbonyl)-amino]-acetic acid], the IC50 [1] was 200 to 2000 nM, the “LDL Cholesterol” value ([2]; 0 hours) was 95 (36) mg/dL and the “Total Cholesterol” value ([2]; 0 hours) was 165 (33) mg/dL. The “LDL Cholesterol” value ([2]; 1 hours) was 95 (36) mg/dL, the “Total Cholesterol” value ([2]; 1 hours) was 164 (30) mg/dL and the “LDL Cholesterol” value ([2]; 2 hours) was 97 (35) mg/dL. The “Total Cholesterol” value ([2]; 2 hours) was 167 (32) mg/dL, the “LDL Cholesterol” value ([2]; 24 hours) was 96 (36) mg/dL and the “Total Cholesterol” value ([2]; 24 hours) was 161 (31) mg/dL. For the same molecule, the “LDL Cholesterol” value ([2]; 72 hours) was 92 (27) mg/dL, the “Total Cholesterol” value ([2]; 72 hours) was 154 (26) mg/dL and the “LDL Cholesterol” value ([2]; 168 hours) was 77 (31) mg/dL. For the same molecule, the “Total Cholesterol” value ([2]; 168 hours) was 144 (24) mg/dL, the “LDL Cholesterol” value ([2]; 240 hours) was 78 (29) mg/dL and the “Total Cholesterol” value ([2]; 240 hours) was 144 (23) mg/dL. The “LDL Cholesterol” value ([2]; 408 hours) was 86 (29) mg/dL, the “Total Cholesterol” value ([2]; 408 hours) was 152 (22) mg/dL and the “HDL decrease from baseline” value [3] was 21 ± 7 mg/dL. For the same molecule, the “LDL decrease from baseline” value [3] was 11 ± 3 mg/dL, the “total cholesterol decrease from baseline” value [3] was 26 ± 9 mg/dL and the “3-hydroxy-3-methylglutaryl-Coenzyme A reductase (Hmgcr) RNA expression” value ([4]; 4 h) was 0.45 fold-change. The “3-hydroxy-3-methylglutaryl-Coenzyme A synthase 1 (Hmgcs1) RNA expression” value ([4]; 4 h) was 0.94 fold-change, the “7-dehydrocholesterol reductase (Dhcr7) RNA expression” value ([4]; 4 h) was 1.03 fold-change and the “NAD(P) dependent steroid dehydrogenase-like (Nsdhl) RNA expression” value ([4]; 4 h) was 0.86 fold-change. The “acetyl-Coenzyme A acetyltransferase 2 (Acat2) RNA expression” value ([4]; 4 h) was 1.24 fold-change, the “cytochrome P450, family 51 (Cyp51) RNA expression” value ([4]; 4 h) was 0.69 fold-change and the “farnesyl diphosphate farnesyl transferase 1 (Fdft1) RNA expression” value ([4]; 4 h) was 0.68 fold-change. The “farnesyl diphosphate synthetase (Fdps) RNA expression” value ([4]; 4 h) was 0.87 fold-change, the “isopentenyl-diphosphate delta isomerase (Idi1) RNA expression” value ([4]; 4 h) was 0.73 fold-change and the “lanosterol synthase (Lss) RNA expression” value ([4]; 4 h) was 0.74 fold-change. For the same molecule, the “mevalonate (diphospho) decarboxylase (Mvd) RNA expression” value ([4]; 4 h) was 0.68 fold-change, the “mevalonate kinase (Mvk) RNA expression” value ([4]; 4 h) was 1.00 fold-change and the “phosphomevalonate kinase (Pmvk) RNA expression” value ([4]; 4 h) was 1.27 fold-change. For the same molecule, the “squalene epoxidase (Sqle) RNA expression” value ([4]; 4 h) was 0.61 fold-change, the “sterol-C4-methyl oxidase-like (Sc4mol) RNA expression” value ([4]; 4 h) was 0.63 fold-change and the “sterol-C5-desaturase (fungal ERG3, delta-5-desaturase) homolog (S. cerevisae) (Sc5d) RNA expression” value ([4]; 4 h) was 1.09 fold-change. The “3-hydroxy-3-methylglutaryl-Coenzyme A reductase (Hmgcr) RNA expression” value ([4]; 8 h) was 0.43 fold-change, the “3-hydroxy-3-methylglutaryl-Coenzyme A synthase 1 (Hmgcs1) RNA expression” value ([4]; 8 h) was 0.38 fold-change and the “7-dehydrocholesterol reductase (Dhcr7) RNA expression” value ([4]; 8 h) was 0.61 fold-change. For the same molecule, the “NAD(P) dependent steroid dehydrogenase-like (Nsdhl) RNA expression” value ([4]; 8 h) was 0.62 fold-change, the “acetyl-Coenzyme A acetyltransferase 2 (Acat2) RNA expression” value ([4]; 8 h) was 0.50 fold-change and the “cytochrome P450, family 51 (Cyp51) RNA expression” value ([4]; 8 h) was 0.45 fold-change. The “farnesyl diphosphate farnesyl transferase 1 (Fdft1) RNA expression” value ([4]; 8 h) was 0.43 fold-change, the “farnesyl diphosphate synthetase (Fdps) RNA expression” value ([4]; 8 h) was 0.36 fold-change and the “isopentenyl-diphosphate delta isomerase (Idi1) RNA expression” value ([4]; 8 h) was 0.51 fold-change. For the same molecule, the “lanosterol synthase (Lss) RNA expression” value ([4]; 8 h) was 0.44 fold-change, the “mevalonate (diphospho) decarboxylase (Mvd) RNA expression” value ([4]; 8 h) was 0.37 fold-change and the “mevalonate kinase (Mvk) RNA expression” value ([4]; 8 h) was 0.53 fold-change. For the same molecule, the “phosphomevalonate kinase (Pmvk) RNA expression” value ([4]; 8 h) was 0.63 fold-change, the “squalene epoxidase (Sqle) RNA expression” value ([4]; 8 h) was 0.43 fold-change and the “sterol-C4-methyl oxidase-like (Sc4mol) RNA expression” value ([4]; 8 h) was 0.46 fold-change. For the same molecule, the “sterol-C5-desaturase (fungal ERG3, delta-5-desaturase) homolog (S. cerevisae) (Sc5d) RNA expression” value ([4]; 8 h) was 0.38 fold-change, the “Total Cholesterol change” value ([5]; Mean (±SD), Compound A orally three times a week (n=74) or continued epoetin alfa (n=22)) was −15 (38)** mg/dL and the “Mean total cholesterol change, decrease” value ([5]; all cohorts) was 15 mg/dL. The “doses with statistically significant decreases in total cholesterol (% change)” value [6] was 100 mg/kg, the “hemoglobin compared to vehicle-treated” value [6] was “statistically significant increases in hemoglobin compared to vehicle-treated at the 60 mg/kg and 100 mg/kg doses; also recorded: significant increase in hemoglobin for the 60 mg/kg and 100 mg/kg doses” and the “total cholesterol (% change from baseline) compared to vehicle-treated” value [6] was “lower total cholesterol levels; also recorded: significant percent change in total cholesterol from baseline for the 100 mg/kg dose”. For the same molecule, the LDL cholesterol change ([7]; Mean (±SD), six weeks, Compound A orally three times a week (n=74) or continued epoetin alfa (n=22)) was −25 (22)** mg/dL, the “Mean change in LDL-C, decrease” value ([7]; all cohorts, six weeks) was 25 mg/dL and the “Mean BL LDL Cholesterol” value [7, 8] was 101.71 mg/dL. For the same molecule, the “Mean BL Total Cholesterol” value [7, 8] was 171.11 mg/dL, the “mean total cholesterol over the course of treatment” value ([7]; both groups stratified by BL total cholesterol ≦200 or >200 mg/dL, FIG. 16) was “reduction” and the “mean LDL-C over the course of treatment” value ([7]; both groups stratified by BL total cholesterol ≦200 or >200 mg/dL, FIG. 17) was “reduction”. The HDL-C ([7]; six weeks) was “showed a decrease”.
